Test results reported in patent US10844015B2, “Pyridine dicarboxamide derivatives as bromodomain inhibitors” (GlaxoSmithKline Intellectual Property (No. 2) Limited, priority 2016, dated 2020).

Tests used:
BRD4 BD2 = target: T1, BRD4 BD2 (Homo sapiens, UniProt O60885, Y97A); experiment: BRD4 BD2 TR-FRET competition assay; format: binding; conditions: single mutant tandem BRD4 protein; for IC50: read-out: pIC50 in the BRD4 BD2 assay (converted)
T1 construct: BRD4 (1-477) (Y97A) and (Y390A); made in house; host or cells: E. coli (pET15b vector)
Description: Time Resolved Fluorescence Resonance Energy Transfer (TR-FRET) Assay
Bromodomain binding was assessed utilising a time resolved fluorescent resonance energy transfer (TR-FRET) competition assay. To enable this approach a known, high affinity, pan-BET interacting small molecule was labelled with Alexa Fluor® 647, which is a far-red-fluorescent dye (Reference Compound X). Reference Compound X acts as a reporter of bromodomain binding and is the acceptor fluorophore component of the TR-FRET pair. Europium chelate, conjugated to an anti-6*His antibody, was utilised as the donor fluorophore in the TR-FRET pair. […] A TR-FRET signal is generated when the donor and acceptor fluorophores are in close proximity, between 20-80 Å, which is enabled in this assay by binding of Reference Compound X to the bromodomain protein.
In order to generate a TR-FRET signal, donor fluorophore is excited by a laser at A337 nm, which subsequently leads to emission at A618 nm. If the acceptor fluorophore is in close proximity then energy transfer can occur, which leads to emission of Alexa Fluor® 647 at A665 nm. In the presence of competitor compound, Reference Compound X can be displaced from binding to the bromodomain. If displacement occurs, the acceptor fluorophore is no longer in proximity to the donor fluorophore, which prevents fluorescent energy transfer and, subsequently, a loss of Alexa Fluor® 647 emission at λ665 nm.
(§1) The competition of the compounds of formula (I) with Reference Compound X for binding to the BET family (BRD2, BRD3, BRD4 and BRDT) was assessed using protein truncates spanning both bromodomain 1 (BD1) and bromodomain 2 (BD2). In order to monitor differential binding to either BD1 or BD2, single residue mutations of key tyrosines to alanine were made in the acetyl lysine binding pockets. To validate this approach, a double residue mutant tandem domain protein was produced for each of the BET family members. Utilising a Fluorescence Polarisation approach, binding affinities for each of the single and double mutants for Reference Compound X were determined.
Final purification was completed by Superdex 200 prep grade size exclusion column. Purified protein was stored at −80° C. in 20 mM HEPES pH 7.5 and 100 mM NaCl.
Protocol for Bromodomain BRD2, 3, 4 and T, BD1+BD2 Mutant TR-FRET Competition Assays:
(§2) All assay components were dissolved in an assay buffer composing of 50 mM HEPES pH7.4, 50 mM NaCl, 5% Glycerol, 1 mM DTT and 1 mM CHAPS. […] The solution containing bromodomain and Reference Compound X was added to dose response dilutions of test compound or DMSO vehicle (a maximum of 0.5% DMSO is used in this assay) in Greiner 384 well black low volume microtitre plates and subsequently incubated for 30 minutes at room temperature. An equal volume of 3 nM of anti-6*His Europium chelate was added to all wells, followed by a further 30 minute incubation at room temperature. TR-FRET was detected using a Perkin Elmer Multimode plate reader, by exciting the donor fluorophore at λ337 nm and subsequently, after a delay of 50 μsecs, measuring emission of the donor and acceptor fluorophores at λ615 nm and λ665 nm, respectively. In order to control these assays, 16 replicates each of uninhibited (DMSO vehicle) and inhibited (10*IC50 concentrations of Example 11 of WO 2011/054846A1) TR-FRET assays were included on every microtitre plate.
cA four parameter curve fit of the following form was then applied: y=a+((b−a)/(1+(10^x/10^c)^d) • Where ‘a’ is the minimum, ‘b’ is the Hill slope, ‘c’ is the pIC50 and ‘d’ is the maximum.
(§3) All compounds (Examples) were each tested in the BRD4 BD1 and the BRD4 BD2 TR-FRET assays essentially as described above. Those of skill in the art will recognise that in vitro binding assays and cell-based assays for functional activity are subject to experimental variability. Accordingly, it is to be understood that the pIC50 values given below are exemplary only. pIC50 values are expressed as log10 units.

BRD4 BD2 over BRD4 BD1 = experiment: Calculation of selectivity for BRD4 BD2 over BRD4 BD1 from the TR-FRET assays; format: binding, Human; conditions: for fold selective for BRD4 BD2 over BRD4 BD1: stated from the log unit selectivity; for selectivity for BRD4 BD2 over BRD4 BD1: BRD4 BD2 pIC50 − BRD4 BD1 pIC50, in at least one of the TR-FRET assays
Description: as §1, §2, §3
Calculation of Selectivity for BRD4 BD2 Over BRD4 BD1
Selectivity for BRD4 BD2 over BRD4 BD1 was calculated as follows: Selectivity=BRD4BD2pIC50−BRD4BD1pIC50

[1] = system: BET family (BRD2, BRD3, BRD4 and BRDT) tandem bromodomain proteins; experiment: Fluorescence Polarisation binding affinities of single and double mutant tandem BET proteins for Reference Compound X; set-up: species or system Human
Description: as §1, with “determined. […] The affinities of the single mutated bromdomain tandem proteins for Reference Compound X were equi-potent with the corresponding non-mutated BET protein. […] In the TR-FRET competition assay, Reference Compound X is used at a concentration that is equivalent to the Kd for the non-mutated bromodomain, which ensures that no binding at the mutated bromodomain is detected.” for “determined.”
Recombinant Human Bromodomains [(BRD2 (1-473) (Y113A) and (Y386A), BRD3 (1-435) (Y73A) and (Y348A) BRD4 (1-477) (Y97A) and (Y390A) and BRDT (1-397) (Y66A) and (Y309A)] were expressed in E. coli cells (in pET15b vector for BRD2/3/4 and in pET28a vector for BRDT) with a 6-His tag at the N-terminal. The His-tagged Bromodomain pellet was resuspended in 50 mM HEPES (pH7.5), 300 mM NaCl, 10 mM imidazole & 1 μL/mL protease inhibitor cocktail and extracted from the E. coli cells using sonication and purified using a nickel sepharose high performance column, the proteins were washed and then eluted with a linear gradient of 0-500 mM imidazole with buffer 50 mM HEPES (pH7.5), 150 mM NaCl, 500 mM imidazole, over 20 column volumes. Final purification was completed by Superdex 200 prep grade size exclusion column. Purified protein was stored at −80° C. in 20 mM HEPES pH 7.5 and 100 mM NaCl. Protein identity was confirmed by peptide mass fingerprinting and predicted molecular weight confirmed by mass spectrometry.

| Structure (SMILES) | IC50 (BRD4 BD2) [nM] | fold selective for BRD4 BD2 over BRD4 BD1 (BRD4 BD2 over BRD4 BD1) | selectivity for BRD4 BD2 over BRD4 BD1 (BRD4 BD2 over BRD4 BD1) [log unit] | further results |
| --- | --- | --- | --- | --- |
| CNC(=O)c1cc(C(=O)N[C@H]2C[C@@H]2C)cc(C(OC)c2ccnc3[nH]ccc23)n1 (relative stereo) [Example 106, 6-((R*-Methoxy(1H-pyrrolo[2,3-b]pyridin-4-yl)methyl)-N^2 methyl-N^4-((1S,2S)-2-methylcyclopropyl)pyridine-2,4-dicarboxamide] | – | at least 1000 fold | – | pIC50 in the BRD4 BD2 assay (BRD4 BD2): 7.6 log10 units |
| CNC(=O)c1cc(C(=O)N[C@H]2C[C@@H]2C)cc(Cc2cncc3[nH]ccc23)n1 [Example 46, 6-((1H-Pyrrolo[2,3-c]pyridin-4-yl)methyl)-N^2-methyl-N^4-((1S,2S)-2-methylcyclopropyl)pyridine-2,4-dicarboxamide] | 79.4 | at least 100 fold | 2.8 | – |
| CNC(=O)c1cc(C(=O)NC2CC2C)cc(C(C)c2cncc3[nH]ccc23)n1 [Example 49, 6-((S*-1-(1H-Pyrrolo[2,3-c]pyridin-4-yl)ethyl)-N^2-methyl-N^4 ((1S,2S)-2-methylcyclopropyl)pyridine-2,4-dicarboxamide] | 12.6 | at least 100 fold | 2.8 | – |
| CNC(=O)c1cc(C(=O)N[C@H]2C[C@@H]2C)cc(Cn2ccccc2=O)n1 [Example 54, N^2-Methyl-N^4-((1S,2S)-2-methylcyclopropyl)-6-((2-oxopyridin-1(2H)-yl)methyl)pyridine-2,4-dicarboxamide] | 1000 to 10000 | – | – | – |
| COc1ccc2c(c1)C(c1ccc(Cl)cc1)=N[C@@H](CC(=O)NCCCCCNC(=O)CCCCCC1(C)/C(=C/C=C/C=C/C3=[N+](CCCCS(=O)(=O)O)c4ccc(S(=O)(=O)O)cc4C3(C)C)N(CCCCS(=O)(=O)[O-])c3ccc(S(=O)(=O)O)cc31)c1nnc(C)n1-2 (stereo partly drawn) [Reference Compound X] | – | – | – | reduction in Kd (affinity) of double mutant tandem proteins in comparison to wild type tandem BET proteins ([1]; double residue (Tyr to Ala) mutant tandem domain proteins): > 1000 fold; reduction of Kd of the interaction between the mutated bromodomain and Reference Compound X ([1]; single mutation of Tyrosine to Alanine): > 1000 fold; affinity of single mutated bromodomain tandem proteins versus corresponding non-mutated BET protein ([1]; single residue (Tyr to Ala) mutants): equi-potent |

Further lines, with some results ahead:

| IC50 (BRD4 BD2) [nM] | Structure (SMILES) | fold selective for BRD4 BD2 over BRD4 BD1 (BRD4 BD2 over BRD4 BD1) | selectivity for BRD4 BD2 over BRD4 BD1 (BRD4 BD2 over BRD4 BD1) [log unit] | further results |
| --- | --- | --- | --- | --- |
| 1000 to 10000 | CNC(=O)c1cc(C(=O)NC2CC2)cc([C@@H](O)c2ccccc2C)n1 (single isomer, unassigned) [Example 116, (S*)-N^4-cyclopropyl-6-(hydroxy(o-tolyl)methyl)-N^2-methylpyridine-2,4-dicarboxamide] | – | – | – |
| 39.8 | CNC(=O)c1cc(C(=O)N[C@H]2C[C@@H]2C)cc(Cc2ccnc3[nH]ccc23)n1 [Example 80, 6-((1H-Pyrrolo[2,3-b]pyridin-4-yl)methyl)-N^2-methyl-N^4-((1S,2S)-2-methylcyclopropyl)pyridine-2,4-dicarboxamide] | at least 1000 fold | – | – |
| 31.6 | CNC(=O)c1cc(C(=O)N[C@H]2C[C@@H]2C)cc(Cc2cccc3c2CCN3)n1 [Example 83, 6-(indolin-4-ylmethyl)-N^2-methyl-N^4-((1S,2S)-2-methylcyclopropyl)pyridine-2,4-dicarboxamide] | at least 100 fold | 2.9 | – |
